Molecules are shown by their SMILES. Several values for one entry are separate records, joined by “and”; a condition that tells them apart may be missing. Equal values may be shown once. Inconclusive results and toxic doses are left out.

This assay deals with CD2F1 mice, L1210 leukemia ip, survival T/C. Briefly: NCI In Vivo Anticancer Drug Screen. Data for tumor model L1210 Leukemia (intraperitoneal) in CD2F1 (CDF1) mice. The settings on record: higher = longer survival. In a few lines: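 Vehicle-treated tumor-bearing mice served as controls (C) for compound-treated mice (T). Reported figure is T divided by C.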
Where [1] appears, read: endpoint: mean survival time, dose: 100.0 mg/kg/injection, schedule: Q01DX001 (ip), vehicle: Klucel (hydroxypropylcellulose) (HPC).
Where [2] appears, read: endpoint: mean survival time, dose: 200.0 mg/kg/injection, schedule: Q01DX001 (ip), vehicle: Klucel (hydroxypropylcellulose) (HPC).
Where [3] appears, read: endpoint: mean survival time, dose: 400.0 mg/kg/injection, schedule: Q01DX001 (ip), vehicle: Klucel (hydroxypropylcellulose) (HPC).
Setting [4] is: endpoint: mean survival time, dose: 100.0 mg/kg/injection, schedule: Q04DX003 (ip), vehicle: saline with Tween-80.
Where [5] appears, read: endpoint: mean survival time, dose: 200.0 mg/kg/injection, schedule: Q04DX003 (ip), vehicle: saline with Tween-80.
[6] abbreviates: endpoint: mean survival time, dose: 400.0 mg/kg/injection, schedule: Q04DX003 (ip), vehicle: saline with Tween-80.
The mark [7] stands for this setting: endpoint: mean survival time, dose: 100.0 mg/kg/injection, schedule: Q04DX002 (ip), vehicle: saline with Tween-80.
[8] abbreviates: endpoint: mean survival time, dose: 200.0 mg/kg/injection, schedule: Q04DX002 (ip), vehicle: saline with Tween-80.
The mark [9] stands for this setting: endpoint: mean survival time, dose: 100.0 mg/kg/injection, schedule: Q01DX009 (ip), vehicle: saline.
Setting [10] is: endpoint: mean survival time, dose: 200.0 mg/kg/injection, schedule: Q01DX009 (ip), vehicle: saline.
The mark [11] stands for this setting: endpoint: mean survival time, dose: 400.0 mg/kg/injection, schedule: Q01DX009 (ip), vehicle: saline.
Where [12] appears, read: endpoint: mean survival time, dose: 100.0 mg/kg/injection, schedule: Q01DX001 (ip), vehicle: saline.
Where [13] appears, read: endpoint: mean survival time, dose: 100.0 mg/kg/injection, schedule: Q01DX009 (ip), vehicle: saline with Tween-80.
[14] abbreviates: endpoint: mean survival time, dose: 200.0 mg/kg/injection, schedule: Q01DX009 (ip), vehicle: saline with Tween-80.
Where [15] appears, read: endpoint: mean survival time, dose: 400.0 mg/kg/injection, schedule: Q01DX009 (ip), vehicle: saline with Tween-80.

Regarding `C1CCC(C2CCCC[N-]2)[N-]C1.[Cl][Pt].[NH-]CC(=O)O` (configuration not stated), the T/C (endpoint: median survival time, dose: 10.0 mg/kg/injection, schedule: Q04DX003 (ip), vehicle: saline) is 101 % of control; the T/C (endpoint: median survival time, dose: 20.0 mg/kg/injection, schedule: Q04DX003 (ip), vehicle: saline) is 105 % of control; the T/C (endpoint: median survival time, dose: 40.0 mg/kg/injection, schedule: Q04DX003 (ip), vehicle: saline) was 98 % of control; the T/C (endpoint: median survival time, dose: 80.0 mg/kg/injection, schedule: Q04DX003 (ip), vehicle: saline) was 95 % of control and 96 % of control; the T/C (endpoint: median survival time, dose: 160.0 mg/kg/injection, schedule: Q04DX003 (ip), vehicle: saline) was 90 % of control; the T/C (endpoint: median survival time, dose: 320.0 mg/kg/injection, schedule: Q04DX003 (ip), vehicle: saline) was 101 % of control.

On to `CCCCCCCCCCCCSC1=CC(=O)C(OC)=C(OC)C1=O`, for which the T/C is 95 % of control (endpoint: mean survival time, dose: 0.78 mg/kg/injection, schedule: Q01DX009 (ip), vehicle: other); 95 % of control (endpoint: mean survival time, dose: 1.56 mg/kg/injection, schedule: Q01DX009 (ip), vehicle: other); 97 % of control (endpoint: mean survival time, dose: 3.13 mg/kg/injection, schedule: Q01DX009 (ip), vehicle: other); 97 % of control (endpoint: mean survival time, dose: 6.25 mg/kg/injection, schedule: Q01DX009 (ip), vehicle: other); 95 % of control (endpoint: mean survival time, dose: 12.5 mg/kg/injection, schedule: Q01DX009 (ip), vehicle: other); 94 % of control (endpoint: mean survival time, dose: 25.0 mg/kg/injection, schedule: Q01DX009 (ip), vehicle: other).

With `NC(Cc1c[nH]c2ccc(N(CCCl)CCCl)cc12)C(=O)O` (configuration not stated), the T/C was 150 % of control (endpoint: mean survival time, dose: 0.5 mg/kg/injection, schedule: Q01DX010 (ip), vehicle: saline); 160 % of control (endpoint: mean survival time, dose: 1.0 mg/kg/injection, schedule: Q01DX010 (ip), vehicle: saline); 208 % of control (endpoint: mean survival time, dose: 2.0 mg/kg/injection, schedule: Q01DX010 (ip), vehicle: saline).

`CNc1c2c(nc3ccccc13)CCCC2`: the T/C (endpoint: mean survival time, dose: 5.0 mg/kg/injection, schedule: Q04DX003 (ip), vehicle: saline with Tween-80) is 96 % of control.

Take `CC(=O)NCC(C)OC(C)=O` (configuration not stated): the T/C is 101 % of control (endpoint: mean survival time, dose: 100.0 mg/kg/injection, schedule: Q04DX003 (ip), vehicle: saline); 97 % of control (endpoint: mean survival time, dose: 200.0 mg/kg/injection, schedule: Q04DX003 (ip), vehicle: saline); 98 % of control (endpoint: mean survival time, dose: 400.0 mg/kg/injection, schedule: Q04DX003 (ip), vehicle: saline).

Regarding `COC(=O)c1[nH]cnc1/N=N\N(CCF)CCF`, the T/C reads like this: (endpoint: mean survival time, dose: 2.1 mg/kg/injection, schedule: Q01DX009 (ip), vehicle: carboxymethylcellulose (CMC)) 109 % of control; (endpoint: mean survival time, dose: 4.2 mg/kg/injection, schedule: Q01DX009 (ip), vehicle: carboxymethylcellulose (CMC)) 108 % of control.

Consider `CCN(c1ccccc1)S(=O)(=O)CS(=O)(=O)N(CC)c1ccccc1`, for which the T/C was 104 % of control under setting [1], 96 % of control under setting [2] and 93 % of control under setting [3].

On to `Nc1cnc2nc(N)[nH]c(=O)c2c1`, for which the T/C was 97 % of control (endpoint: mean survival time, dose: 100.0 mg/kg/injection, schedule: Q01DX009 (ip), vehicle: saline sonified); 93 % of control under setting [4]; 102 % of control (endpoint: mean survival time, dose: 200.0 mg/kg/injection, schedule: Q01DX009 (ip), vehicle: saline sonified); 93 % of control under setting [5]; 93 % of control (endpoint: mean survival time, dose: 400.0 mg/kg/injection, schedule: Q01DX009 (ip), vehicle: saline sonified); 95 % of control under setting [6].

Regarding `CC1(Br)CCOC1=O` (configuration not stated), the T/C reads like this: (endpoint: mean survival time, dose: 50.0 mg/kg/injection, schedule: Q04DX002 (ip), vehicle: saline with Tween-80) 98 % of control; under setting [7], 98 % of control; under setting [8], 111 % of control.

On to `CCN(CC)CCNCCCNCCN(CC)CC`, for which the T/C by setting is: under setting [9], 92 % of control; under setting [4], 98 % of control; under setting [10], 92 % of control; under setting [5], 95 % of control; under setting [11], 87 % of control; under setting [6], 95 % of control.

Regarding `O=C(Nc1ccc(Oc2ccccc2)cc1)c1ccc(C(=O)Nc2ccc(Oc3ccccc3)cc2)cc1`, the T/C under setting [12] was 92 % of control; the T/C (endpoint: mean survival time, dose: 200.0 mg/kg/injection, schedule: Q01DX001 (ip), vehicle: saline) was 92 % of control; the T/C (endpoint: mean survival time, dose: 400.0 mg/kg/injection, schedule: Q01DX001 (ip), vehicle: saline) is 95 % of control.

Consider `Cc1cc(C)c(C(=O)O)c(C(=O)O)c1`, for which the T/C is 106 % of control under setting [1], 95 % of control under setting [2] and 106 % of control under setting [3].

With `COc1ccc(CC(=O)O)cc1OC` (tested in a mixture with another compound), the T/C was 96 % of control under setting [13]; 101 % of control (endpoint: mean survival time, dose: 100.0 mg/kg/injection, schedule: Q04DX003 (ip), vehicle: saline sonified); 98 % of control under setting [14]; 101 % of control (endpoint: mean survival time, dose: 200.0 mg/kg/injection, schedule: Q04DX003 (ip), vehicle: saline sonified); 102 % of control under setting [15]; 96 % of control (endpoint: mean survival time, dose: 400.0 mg/kg/injection, schedule: Q04DX003 (ip), vehicle: saline sonified).

Consider `CC(=O)OCCN(CCOC(C)=O)CCOC(C)=O`, for which the T/C (endpoint: mean survival time, dose: 100.0 mg/kg/injection, schedule: Q04DX003 (ip), vehicle: Klucel (hydroxypropylcellulose) (HPC)) was 95 % of control.

Turning to `CCCCCCCCCCCCCCCCOCCOCCOCCOCCOCCCCCCCCCCCCCCCC`, the T/C reads like this: under setting [7], 94 % of control; under setting [8], 94 % of control; (endpoint: mean survival time, dose: 400.0 mg/kg/injection, schedule: Q04DX002 (ip), vehicle: saline with Tween-80) 98 % of control.

On to `CC(C)(C)C1=CC(=C2C=C(C(C)(C)C)C(=O)C(C(C)(C)C)=C2)C=C(C(C)(C)C)C1=O`, for which the T/C runs as follows: (endpoint: mean survival time, dose: 75.0 mg/kg/injection, schedule: Q04DX003 (ip), vehicle: saline with Tween-80) 100 % of control; under setting [13], 95 % of control; (endpoint: mean survival time, dose: 150.0 mg/kg/injection, schedule: Q04DX003 (ip), vehicle: saline with Tween-80) 100 % of control; under setting [14], 91 % of control; (endpoint: mean survival time, dose: 300.0 mg/kg/injection, schedule: Q04DX003 (ip), vehicle: saline with Tween-80) 89 % of control; under setting [15], 91 % of control.

For `CC1CC1Cc1ccccc1` (configuration not stated), the T/C (endpoint: mean survival time, dose: 100.0 mg/kg/injection, schedule: Q01DX001 (ip), vehicle: saline with Tween-80) is 86 % of control.

Regarding `Nc1cc(S(=O)(=O)c2ccc(/C=C/c3ccccc3)c(N)c2)ccc1/C=C/c1ccccc1`, the T/C was 93 % of control under setting [13]; 94 % of control and 88 % of control under setting [14]; 91 % of control under setting [15].

With `O=C1OC(O)C(Br)=C1Br` (configuration not stated), the T/C (endpoint: mean survival time, dose: 100.0 mg/kg/injection, schedule: Q04DX002 (ip), vehicle: Klucel (hydroxypropylcellulose) (HPC)) is 105 % of control; the T/C (endpoint: mean survival time, dose: 200.0 mg/kg/injection, schedule: Q04DX002 (ip), vehicle: Klucel (hydroxypropylcellulose) (HPC)) was 91 % of control; the T/C (endpoint: mean survival time, dose: 400.0 mg/kg/injection, schedule: Q04DX002 (ip), vehicle: Klucel (hydroxypropylcellulose) (HPC)) was 89 % of control.

Regarding `COc1ccc([NH-])cc1.COc1ccc([NH-])cc1.[Br][Pt+2][Br]`, the T/C (endpoint: mean survival time, dose: 3.12 mg/kg/injection, schedule: Q04DX003 (ip), vehicle: distilled water + Tween-80) was 111 % of control; the T/C (endpoint: mean survival time, dose: 6.25 mg/kg/injection, schedule: Q04DX003 (ip), vehicle: distilled water + Tween-80) was 108 % of control; the T/C (endpoint: mean survival time, dose: 12.5 mg/kg/injection, schedule: Q04DX003 (ip), vehicle: distilled water + Tween-80) was 114 % of control; the T/C (endpoint: mean survival time, dose: 25.0 mg/kg/injection, schedule: Q04DX003 (ip), vehicle: distilled water + Tween-80) was 111 % of control; the T/C (endpoint: mean survival time, dose: 50.0 mg/kg/injection, schedule: Q04DX003 (ip), vehicle: distilled water + Tween-80) was 98 % of control.

For the compound `C[S+](C)CC(=O)O`, the T/C runs as follows: under setting [9], 97 % of control; under setting [10], 101 % of control; under setting [11], 92 % of control.

For the compound `CCC(C)CC(C)N` (configuration not stated), the T/C under setting [12] was 104 % of control.
